US20210283198A1, “METHOD FOR TREATING AND/OR PREVENTING COCCIDIOSIS” (priority 2020, published 2021)
Marks after values point to notes of the source that are not given here. *1 amine or outer side, *2 acyl side, *3 side chain or, on linkers, in order; H or OH if unused. Where a SMILES comes first, the peptide text is derived from it. Bridges are numbered along the chain shown (N, C = ends). [ ]: non-standard residue; d: D form. X1 = CC(C)CCCCCCCCC[C@H](CC(=O)[*:1])O[*:2]

Legend:
[1] = tested on: P. falciparum; details: literature (Chakrabarty et al. 2008); cited from earlier work
[2] = tested on: Eimeria tenella sporozoites; assay: Scanning electron microscopy of sporozoite morphology; type: cell-based; details: 5, 10, 20 ppm; 1 h at 37° C.; 10^6 sporozoites/mL; compared with untreated group
[3] = tested on: Eimeria tenella merozoites; assay: In vitro death of merozoite (propidium iodide staining, confocal microscopy); type: cell-based; details: 100 ppm; 10^4/mL merozoites; 1 h at 37° C.; mean ± SD (n = 3)

CC(C)CCCCCCCCC[C@@H]1CC(=O)N[C@@H](CCC(=O)O)C(=O)N[C@@H](CC(C)C)C(=O)N[C@H](CC(C)C)C(=O)N[C@@H](C(C)C)C(=O)N[C@@H](CC(=O)O)C(=O)N[C@H](CC(C)C)C(=O)N[C@@H](CC(C)C)C(=O)O1 [surfactin standard, surfactin] (EL[dL]VD[dL]L; linker N-C via X1)
Intraerythrocytic growth of P. falciparum [1]: potent inhibitor of intraerythrocytic growth | Morphology of Eimeria tenella sporozoites (scanning electron microscopy) [2]: disrupt the morphology | Death of merozoite (%) [3]: 97 ± 0.01^b %
